Values of other authors in patent US20080248135A1, “Combination Therapy for Otitis with Antiseptic and pH Adjustment” (Collegium Pharmaceutical, Inc., priority 2006, published 2008).

Tests used:
P. aeruginosa = settings: background statement
Aspergillus = settings: antifungal creams; background statement

Row | Compound | Activity against P. aeruginosa (P. aeruginosa) | further results
1 | CC1(C)S[C@@H]2[C@H](NC(=O)[C@H](N)c3ccccc3)C(=O)N2[C@H]1C(=O)O [ampicillin] | no activity | 
2 | N[C@@H](C(=O)N[C@@H]1C(=O)N2C(C(=O)O)=C(Cl)CS[C@H]12)c1ccccc1 [cefaclor] | no activity | 
3 | CC1=C(C(=O)O)N2C(=O)[C@@H](NC(=O)[C@H](N)c3ccccc3)[C@H]2SC1 [cephalexin] | no activity | 
4 | Clc1ccccc1C(c1ccccc1)(c1ccccc1)n1ccnc1 [clotrimazole] |  | Effectiveness against Aspergillus (Aspergillus): not effective
5 | II [iodine, elemental iodine (I2)] |  | Saturating concentration of iodine in water: ca. 0.0013 M
6 | C[C@@H]1[C@H](O)[C@@H](C)/C=C/C=C/CC/C=C/C=C/C=C/C=C/C(O[C@H]2O[C@H](C)[C@@H](O)[C@H](N)[C@@H]2O)CC2O[C@](O)(CC(O)C(O)CCC(O)CC(O)CC(O)CC(=O)O[C@H]1C)CC(O)C2C(=O)O (stereo partly shown) [nystatin] |  | Effectiveness against Aspergillus (Aspergillus): not effective
7 | trimethoprim-sulfamethoxazole | no activity | 
